Test results: US20030113814A1, “Identification of modulators of gpr55 activity” (priority 2002, published 2003)

Columns and labels:
Human GPR55 = target: T1, Human GPR55 (Homo sapiens, UniProt Q9Y2T6); experiment: Yeast FUS1-lacZ/FUS1-HIS3 reporter gene induction assay, yeast expressing p426GPD-GPR55 with Gpa1/Gα chimeras; type: cell-based
T1 construct: expressed in transfected cells; host or cells: Saccharomyces cerevisiae strains MMY14-MMY24 (STE2 and GPA1 deleted, Gpa1/Gα chimeras integrated)
Source text: These strains contain a series of genetic modifications to enable coupling of heterologously expressed receptors to the expression of two reporter genes, via the endogenous yeast pheromone response signal transduction pathway. Importantly, the gene encoding the endogenous yeast pheromone receptor, STE2, has been deleted from these strains such that cells containing p426GPD-GPR55 will express GPR55 protein in place of Ste2 receptor protein. Furthermore, the gene encoding the G-protein α-subunit involved in the pheromone response, GPA1, has been deleted from these strains. To enable receptor coupling in strains MMY14-24, plasmid constructs encoding modified versions of GPA1 have been stably integrated into the yeast chromosome and are expressed in place of endogenous yeast GPA1. […] Generally, the modifications made to Gpa1 facilitate coupling of heterologously expressed receptors to the yeast pheromone response pathway.
In vivo assays of reporter gene induction were carried out by suspending yeast cells transformed as described above to a density of 0.02 OD600/ml in 200 μl SC-glucose (2%) medium lacking tryptophan, uracil and histidine. This medium was supplemented with 10 mM 3-aminotriazole and the β-galactosidase (lacZ) substrate chlorophenolred-β-D-galactopyranoside (CPRG; Boehringer Mannheim) to a concentration of 0.1 mg/ml. […] To visualise the yellow to red colour change reaction occurring on degradation of CPRG due to β-galactosidase, the medium was buffered to pH 7 with 0.1 M sodium phosphate. The assay was conducted in flat-bottomed sterile 96-well microtitre plates. Plates were incubated for 24 hours at 30° C. without agitation, and absorbance at 570 nm was determined using a Spectrofluor microtitre plate reader (Tecan).

EDG1 = target: T2, EDG1 (Homo sapiens, UniProt P21453); experiment: Yeast reporter gene assay with unrelated receptor; type: cell-based
T2 construct: expressed in transfected cells; host or cells: Saccharomyces cerevisiae reporter strain (inferred from context)

[1] = test system: control cells transformed with the vector p426GPD in combination with Gpa1/Gα13 and therefore lacking GPR55; experiment: Yeast reporter gene assay in control cells transformed with vector p426GPD (lacking GPR55); type: cell-based, Saccharomyces cerevisiae; conditions: data not shown
Source text: A system of yeast strains MMY14-MMY24 has been described previously (Olesnicky et al, EMBO J. 18, 2756-2763, 1999, Brown et al, Yeast 16, 11-22, 2000). These strains contain a series of genetic modifications to enable coupling of heterologously expressed receptors to the expression of two reporter genes, via the endogenous yeast pheromone response signal transduction pathway. Importantly, the gene encoding the endogenous yeast pheromone receptor, STE2, has been deleted from these strains such that cells containing p426GPD-GPR55 will express GPR55 protein in place of Ste2 receptor protein. Furthermore, the gene encoding the G-protein α-subunit involved in the pheromone response, GPA1, has been deleted from these strains. To enable receptor coupling in strains MMY14-24, plasmid constructs encoding modified versions of GPA1 have been stably integrated into the yeast chromosome and are expressed in place of endogenous yeast GPA1. […]
In vivo assays of reporter gene induction were carried out by suspending yeast cells transformed as described above to a density of 0.02 OD600/ml in 200 μl SC-glucose (2%) medium lacking tryptophan, uracil and histidine. […] Plates were incubated for 24 hours at 30° C. without agitation, and absorbance at 570 nm was determined using a Spectrofluor microtitre plate reader (Tecan).

T1 sequence (Q9Y2T6 whole entry): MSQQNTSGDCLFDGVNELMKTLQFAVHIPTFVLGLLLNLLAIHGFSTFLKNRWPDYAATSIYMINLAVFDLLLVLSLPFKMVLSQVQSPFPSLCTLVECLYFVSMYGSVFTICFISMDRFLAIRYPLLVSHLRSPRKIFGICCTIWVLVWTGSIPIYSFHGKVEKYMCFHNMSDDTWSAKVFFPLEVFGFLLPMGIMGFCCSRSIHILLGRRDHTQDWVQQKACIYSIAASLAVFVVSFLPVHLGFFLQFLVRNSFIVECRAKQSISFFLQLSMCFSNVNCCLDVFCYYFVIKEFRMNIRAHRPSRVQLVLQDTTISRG
T2 sequence (P21453 whole entry): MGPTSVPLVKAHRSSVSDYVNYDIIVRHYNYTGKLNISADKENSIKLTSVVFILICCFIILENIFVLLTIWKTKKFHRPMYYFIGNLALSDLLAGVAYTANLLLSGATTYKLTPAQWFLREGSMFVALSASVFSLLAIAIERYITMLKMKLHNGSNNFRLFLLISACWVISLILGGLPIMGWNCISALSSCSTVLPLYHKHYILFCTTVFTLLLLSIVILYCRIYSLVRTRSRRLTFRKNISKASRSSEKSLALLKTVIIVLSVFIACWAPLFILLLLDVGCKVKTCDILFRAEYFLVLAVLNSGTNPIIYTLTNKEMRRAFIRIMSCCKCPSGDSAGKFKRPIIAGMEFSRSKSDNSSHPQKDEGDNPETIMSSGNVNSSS

Cc1c(C(=O)NN2CCOCC2)nn(-c2ccc(Cl)cc2Cl)c1-c1ccc(I)cc1 [AM281, 1-(2,4-dichlorophenyl)-5-(4-iodophenyl)-4-methyl-N-4-morpholinyl-1H-pyrazole-3-carboxamide]
activity at GPR55 (Human GPR55; tested at GPR55 in yeast, data not shown): appeared active

Cc1c(C(=O)NN2CCCCC2)nn(-c2ccc(Cl)cc2Cl)c1-c1ccc(I)cc1 [AM251, N-(piperidin-1-yl)-5-(4-iodophenyl)-1-(2,4-dichlorophenyl)-4-methyl-1H-pyrazole-3-carboxamide]
agonism at GPR 55 (Human GPR55; GPR 55 expressed in yeast containing Gpa1/GαI3, Gαi2 and Gαi3 chimeras (FIG. 3 legend)): acts as an agonist
GPR55 activity in strain expressing Gpa1/Gα12 (Human GPR55; Gpa1/Gα12): Activity has also been observed
GPR55 activity in strains expressing Gpa1/Gαi2 or Gpa1/Gαi3 (Human GPR55; Gpa1/Gαi2 or Gpa1/Gαi3 (FIG. 3)): weaker activities
reporter gene activity (Human GPR55; yeast co-expressing p426GPD-GPR55 and Gpa1/Gα13, response dependent on concentration (FIG. 3)): significant increase
activation of GPR55 (Human GPR55; yeast reporter assay): up to 60 fold over background
activation of unrelated receptors (EDG1) (EDG1): 1.3 fold over background
increase in reporter gene activity in control cells [1]: not observed
